Data: patent US10035778B2, “Meta-azacyclic amino benzoic acid derivatives as pan integrin antagonists” (Saint Louis University, priority 2015, dated 2018)

What was measured:
Format in all cases: binding
[1] = target: Recombinant human integrin αvβ8 (Homo sapiens (Human), UniProt P06756+P26012); assay: Solid Phase Receptor Assay (SPRA) for αvβ8 function; conditions: LAP-coated plate
Method: 6. Solid Phase Receptor Assay (SPRA) for αvβ8 Function
Recombinant human LAP protein (R&D Systems, Inc, 246-LP) diluted to 0.5 μg/mL in TBS+ buffer (25 mM Tris pH 7.4, 137 mM NaCl, 2.7 mM KCl, 1 mM CaCl2, 1 mM MgCl2, 1 mM MnCl2) was added to wells (50 μl/well) of a 96-well half-well transparent microtiter plate (Greiner 675061), and incubated overnight at 4° C. Wells were washed 3 times with 150 μL TBS+ and 150 μL of blocking buffer (TBS+ with 1% bovine serum albumin, Sigma A7906) were added. The plate was incubated for 1 hr at 37° C. and then washed 3× with TBS+. Recombinant human integrin αvβ8 (R&D Systems, 4135-AV) was diluted to 0.1 μg/mL in TBS+/0.1% bovine serum albumin. Compounds were diluted 1:100 into the integrin solution and 50 μL added to empty wells of the washed LAP-coated plate according to a standard template with each sample repeated in triplicate. After incubation for two hours at room temperature, the plate was washed 3× with 150 μL of TBS+. To each well, 50 μL of biotinylated anti-αv antibody (R&D Systems, BAF1219) at 1 μg/mL in TBS+/0.1% BSA were added and the plate was covered and incubated for 1 hr at room temperature. After washing the plate 3× with 150 μL of TBS+ buffer, 50 μL of streptavidin-conjugated horseradish peroxidase (R&D Systems, DY998) diluted in TBS+ blocking buffer were added to the wells and the plate incubated for 20 min at room temperature. The plate was washed 3× with TBS+ followed by 50 μL of TMB substrate (Sigma T4444) added to each well and the plate incubated for 20 min at room temperature. Plates were read by colorimetric detection at 650 nm wavelength using a Tecan Safire II plate reader. Concentration-response curves were constructed by non-linear regression (best fit) analysis, and IC50 values were calculated for each compound.

[2] = target: Recombinant human integrin αvβ1 (Homo sapiens (Human), UniProt P05556+P06756); assay: Solid Phase Receptor Assay (SPRA) for αvβ1 function; conditions: fibronectin-coated plate
Method: 2. Solid Phase Receptor Assay (SPRA) for αvβ1 Function
Purified human fibronectin (R&D Systems, 1918-FN) diluted to 5 μg/mL in TBS+ buffer (25 mM Tris pH 7.4, 137 mM NaCl, 2.7 mM KCl, 1 mM CaCl2, 1 mM MgCl2, 1 mM MnCl2) was added to wells (50 μL/well) of a 96-well half-well transparent microtiter plate (Greiner 675061) and incubated overnight at 4° C. Wells were washed 3 times with 150 μL TBS+ and 150 μL of blocking buffer (TBS+ with 1% bovine serum albumin, Sigma A7906) were added. The plate was incubated for 1 hr at 37° C. and then washed 3× with TBS+ buffer. Recombinant human integrin αvβ1 (R&D Systems. 6579-AV) was diluted to 2.0 μg/mL in TBS+/0.1% bovine serum albumin. Compounds were diluted 1:100 into the integrin solution and 50 μL added to empty wells of the washed fibronectin-coated plate according to a standard template with each sample repeated in triplicate. After incubation for two hours at room temperature, the plate was washed 3× with 150 μL of TBS+ buffer. To each well, 50 μL of biotinylated anti-αv antibody (R&D Systems, BAF1219) at 1 μg/mL in TBS+/0.1% BSA were added and the plate covered and incubated for 1 hr at room temperature. After washing the plate 3× with 150 μL of TBS+ buffer, 50 μL of streptavidin-conjugated horseradish peroxidase (R&D Systems, DY998) diluted in TBS+ blocking buffer were added to the wells and the plate incubated for 20 min at room temperature. The plate was washed 3× with TBS+ buffer followed by 50 μL of TMB substrate (Sigma, T4444) added to each well and the plate incubated for 20 min at room temperature. Plates were read by colorimetric detection at 650 nm wavelength using a Tecan Safire II plate reader. Concentration-response curves were constructed by non-linear regression (best fit) analysis, and IC50 values were calculated for each compound.

[3] = target: Recombinant human integrin αvβ5 (Homo sapiens (Human), UniProt P06756+P18084); assay: Solid Phase Receptor Assay (SPRA) for αvβ5 function; conditions: vitronectin-coated plate
Method: 4. Solid Phase Receptor Assay (SPRA) for αvβ5 Function
Recombinant human vitronectin (R&D Systems, 2308-VN) at 0.25 μg/mL in TBS+ buffer (25 mM Tris pH 7.4, 137 mM NaCl, 2.7 mM KCl, 1 mM CaCl2, 1 mM MgCl2, 1 mM MnCl2) was added to wells (50 μL/well) of a 96-well half-well transparent microtiter plate (Greiner 675061) and incubated overnight at 4° C. Wells were washed 3 times with 150 μL TBS+ and 150 μL of blocking buffer (TBS+ with 1% bovine serum albumin, Sigma A7906) were added. The plate was incubated for 1 hr at 37° C. and then washed 3× with TBS+ buffer. Recombinant human integrin αvβ5 (R&D Systems, 2528-AV) was diluted to 0.1 μg/mL in TBS+/0.1% bovine serum albumin. Compounds were diluted 1:100 into the integrin solution and then 50 μL added to empty wells of the washed vitronectin-coated plate according to a standard template with each sample repeated in triplicate. After incubation for two hours at room temperature, the plate was washed 3× with 150 μL of TBS+ buffer. To each well, 50 μl of biotinylated anti-αv antibody (R&D Systems, BAF1219) at 0.5 μg/mL in TBS+/0.1% BSA at 0.5 μg/mL were added and the plate covered and incubated for 1 hr at room temperature. After washing the plate 3× with 150 μL of TBS+ buffer, 50 μL of streptavidin-conjugated horseradish peroxidase (R&D Systems DY998) diluted in TBS+ blocking buffer were added to the wells and the plate incubated for 20 min at room temperature. The plate was washed 3× with TBS+ buffer followed by 50 μL of TMB substrate (Sigma T4444) added to each well and the plate incubated for 20 min at room temperature. Plates were read by colorimetric detection at 650 nm wavelength using a Tecan Safire II plate reader. Concentration-response curves were constructed by non-linear regression (best fit) analysis, and IC50 values were calculated for each compound.

Chain of Recombinant human integrin αvβ1 (P06756 31-992): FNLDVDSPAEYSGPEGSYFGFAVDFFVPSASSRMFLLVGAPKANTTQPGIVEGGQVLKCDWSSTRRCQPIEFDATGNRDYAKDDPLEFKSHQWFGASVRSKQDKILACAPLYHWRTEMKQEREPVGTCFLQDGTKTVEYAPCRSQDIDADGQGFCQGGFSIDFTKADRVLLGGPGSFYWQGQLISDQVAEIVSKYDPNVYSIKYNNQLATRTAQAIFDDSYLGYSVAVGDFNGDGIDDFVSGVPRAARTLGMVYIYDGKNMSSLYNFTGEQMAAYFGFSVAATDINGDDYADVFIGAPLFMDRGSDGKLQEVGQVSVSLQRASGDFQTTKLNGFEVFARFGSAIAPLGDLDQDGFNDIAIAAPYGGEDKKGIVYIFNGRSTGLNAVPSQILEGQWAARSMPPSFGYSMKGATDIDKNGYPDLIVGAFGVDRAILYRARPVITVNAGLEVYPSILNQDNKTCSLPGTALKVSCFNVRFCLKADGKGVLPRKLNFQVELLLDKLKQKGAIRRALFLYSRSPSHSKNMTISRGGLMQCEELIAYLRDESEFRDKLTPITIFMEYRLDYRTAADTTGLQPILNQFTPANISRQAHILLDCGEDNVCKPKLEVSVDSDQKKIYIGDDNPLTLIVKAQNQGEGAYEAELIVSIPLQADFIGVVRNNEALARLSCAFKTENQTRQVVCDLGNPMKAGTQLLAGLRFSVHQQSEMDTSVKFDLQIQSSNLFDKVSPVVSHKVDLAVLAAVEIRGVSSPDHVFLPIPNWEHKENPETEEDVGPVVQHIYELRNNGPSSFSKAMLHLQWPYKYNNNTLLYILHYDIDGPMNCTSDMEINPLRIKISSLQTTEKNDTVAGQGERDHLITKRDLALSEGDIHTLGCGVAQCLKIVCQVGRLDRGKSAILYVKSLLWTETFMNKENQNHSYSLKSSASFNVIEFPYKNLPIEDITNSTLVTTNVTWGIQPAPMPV
Chain of Recombinant human integrin αvβ1 (P05556 21-728): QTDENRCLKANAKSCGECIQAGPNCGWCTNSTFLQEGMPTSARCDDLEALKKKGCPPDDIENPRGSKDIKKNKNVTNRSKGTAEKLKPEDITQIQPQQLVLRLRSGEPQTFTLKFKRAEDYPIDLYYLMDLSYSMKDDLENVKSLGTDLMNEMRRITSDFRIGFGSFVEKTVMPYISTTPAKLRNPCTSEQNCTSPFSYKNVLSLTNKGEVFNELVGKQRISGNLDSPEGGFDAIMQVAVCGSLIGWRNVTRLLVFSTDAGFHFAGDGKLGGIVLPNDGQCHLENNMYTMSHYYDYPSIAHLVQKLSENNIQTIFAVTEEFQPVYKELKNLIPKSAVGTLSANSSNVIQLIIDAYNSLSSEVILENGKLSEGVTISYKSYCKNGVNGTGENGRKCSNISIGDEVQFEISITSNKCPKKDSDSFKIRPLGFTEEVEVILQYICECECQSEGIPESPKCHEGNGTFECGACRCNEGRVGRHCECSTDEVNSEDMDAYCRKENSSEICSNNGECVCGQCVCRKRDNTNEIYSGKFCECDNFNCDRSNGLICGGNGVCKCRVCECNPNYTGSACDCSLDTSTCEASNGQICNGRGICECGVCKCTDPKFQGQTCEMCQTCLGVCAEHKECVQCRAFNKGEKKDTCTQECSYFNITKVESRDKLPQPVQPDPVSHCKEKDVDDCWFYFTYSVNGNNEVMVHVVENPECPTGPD
Chain of Recombinant human integrin αvβ8 (P06756 31-992): as the sequence (P06756 31-992) above
Chain of Recombinant human integrin αvβ8 (P26012 43-684): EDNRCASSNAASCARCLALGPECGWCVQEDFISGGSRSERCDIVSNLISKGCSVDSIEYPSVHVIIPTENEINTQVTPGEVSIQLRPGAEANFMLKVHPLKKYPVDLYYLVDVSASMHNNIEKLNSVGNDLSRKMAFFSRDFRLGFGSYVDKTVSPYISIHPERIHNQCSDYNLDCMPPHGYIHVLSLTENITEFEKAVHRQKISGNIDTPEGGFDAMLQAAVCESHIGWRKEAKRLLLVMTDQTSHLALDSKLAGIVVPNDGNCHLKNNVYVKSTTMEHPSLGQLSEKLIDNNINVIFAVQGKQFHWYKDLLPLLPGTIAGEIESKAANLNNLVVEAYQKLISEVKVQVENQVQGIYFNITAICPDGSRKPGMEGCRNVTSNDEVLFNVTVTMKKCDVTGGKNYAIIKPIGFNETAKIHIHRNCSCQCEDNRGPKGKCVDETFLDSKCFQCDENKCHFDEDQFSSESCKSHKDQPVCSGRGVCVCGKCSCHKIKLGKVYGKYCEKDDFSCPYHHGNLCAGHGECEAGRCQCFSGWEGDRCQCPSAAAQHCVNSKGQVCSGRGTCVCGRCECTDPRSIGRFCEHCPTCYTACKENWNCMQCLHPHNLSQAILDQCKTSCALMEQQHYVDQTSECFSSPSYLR
Chain of Recombinant human integrin αvβ5 (P06756 31-992): as the sequence (P06756 31-992) above
Chain of Recombinant human integrin αvβ5 (P18084 24-719): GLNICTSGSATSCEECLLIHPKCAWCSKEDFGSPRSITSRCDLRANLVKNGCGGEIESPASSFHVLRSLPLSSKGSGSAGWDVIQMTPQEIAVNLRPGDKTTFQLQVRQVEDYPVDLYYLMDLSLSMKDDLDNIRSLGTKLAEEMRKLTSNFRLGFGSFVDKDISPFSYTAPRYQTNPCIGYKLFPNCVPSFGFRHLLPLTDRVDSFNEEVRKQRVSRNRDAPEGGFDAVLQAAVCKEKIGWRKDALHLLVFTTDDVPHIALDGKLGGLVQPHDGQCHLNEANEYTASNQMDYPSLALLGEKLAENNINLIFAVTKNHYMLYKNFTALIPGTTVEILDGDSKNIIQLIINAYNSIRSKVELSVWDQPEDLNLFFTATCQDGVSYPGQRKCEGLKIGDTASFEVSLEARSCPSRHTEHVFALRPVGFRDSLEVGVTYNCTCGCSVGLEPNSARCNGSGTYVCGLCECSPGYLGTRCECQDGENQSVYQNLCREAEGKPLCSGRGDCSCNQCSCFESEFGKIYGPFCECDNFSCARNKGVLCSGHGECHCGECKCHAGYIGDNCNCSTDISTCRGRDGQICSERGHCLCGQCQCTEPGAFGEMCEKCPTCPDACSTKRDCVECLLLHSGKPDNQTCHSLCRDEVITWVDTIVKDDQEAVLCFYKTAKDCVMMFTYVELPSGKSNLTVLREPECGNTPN

Row | Compound | IC50 [1] [nM] | IC50 [2] [nM] | IC50 [3] [nM]
1 | O=C(O)C[C@H](NC(=O)CNC(=O)c1cc(O)cc(NC2=NCC(O)CN2)c1)c1ccccc1 (stereo partly drawn) [Example C2, reference compound] | 5 | 5 | 0.4
2 | Cc1cc(C)cc(C(CC(=O)O)NC(=O)CNC(=O)c2cccc(NC(=N)N)c2)c1 (stereo not drawn) [Example C4, reference compound] | 6 | 10 | 2
3 | N=C(N)Nc1cccc(C(=O)NCC(=O)NC(CC(=O)O)c2ccccc2)c1 (stereo not drawn) [Example C5, reference compound] | 66 | 17 ± 5 | 1
4 | Cc1ccc(O)c(C(CC(=O)O)NC(=O)CNC(=O)c2cccc(NC(=N)N)c2)c1 (stereo not drawn) [Example C8, reference compound] | 18 | 13 | 5
5 | N=C(N)Nc1cccc(C(=O)NCC(=O)NC(CC(=O)O)c2cc(F)cc(C(F)(F)F)c2)c1 (stereo not drawn) [Example C9, reference compound] | 6 ± 3 | 5 ± 2 | 0.4
6 | Cc1cc(Cl)cc([C@@H](CC(=O)O)NC(=O)CNC(=O)c2cccc(NC3=NCCN3)c2)c1O [Example C11, reference compound] | 11 | 16 ± 4 | 2

Now from value to molecule:

Row | IC50 [1] [nM] | IC50 [2] [nM] | IC50 [3] [nM] | Compound
7 | 0.3 ± 0.1 | 3 ± 2 | 0.6 | O=C(O)C[C@H](NC(=O)CNC(=O)c1cc(O)cc(NC2=NCC(O)CN2)c1)c1cc(Cl)cc(OC(F)(F)F)c1 (stereo partly drawn) [Example 16, (3S)-3-[3-chloro-5-(trifluoromethoxy)phenyl)-3-(2-(3-hydroxy-5-((5-hydroxy-1,4,5,6-tetrahydropyrimidin-2-yl)amino)benzamido)acetamido)propanoic acid]
8 | 0.3 ± 0.1 | 4 ± 2 | 0.6 | O=C(O)C[C@H](NC(=O)CNC(=O)c1cc(O)cc(NC2=NCC(O)CN2)c1)c1cc(Br)cc(OC(F)(F)F)c1 (stereo partly drawn) [Example 17, (3S)-3-(3-bromo-5-(trifluoromethoxy)phenyl)-3-(2-(3-hydroxy-5-((5-hydroxy-1,4,5,6-tetrahydropyrimidin-2-yl)amino)benzamido)acetamido)propanoic acid]
9 | 3 ± 2 | 17 ± 2 | 3 ± 1 | O=C(O)C[C@H](NC(=O)CNC(=O)c1cc(O)cc(NC2=NCC(O)CN2)c1)c1cc(Cl)cc(Br)c1O (stereo partly drawn) [Example C1, reference compound]
10 | 2 | 7 | 2 | O=C(O)CC(NC(=O)CNC(=O)c1cc(O)cc(NC2=NCC(O)CN2)c1)c1cc(Cl)cc(Cl)c1O (stereo not drawn) [Example C3, reference compound]
11 | 9 ± 6 | 8 ± 6 | 1 | Cc1ccc(O)c(C(CC(=O)O)NC(=O)CNC(=O)c2cc(O)cc(NC3=NCC(O)CN3)c2)c1 (stereo not drawn) [Example C6, reference compound]
12 | 7 | 101 | 25 | O=C(O)CC(NC(=O)CNC(=O)c1cc(O)cc(NC2=NCC(O)CN2)c1)c1cc(Br)cc(Br)c1O (stereo not drawn) [Example C7, reference compound]
13 | 5 | 14 ± 8 | 2 | Cc1cc(Cl)cc([C@@H](CC(=O)O)NC(=O)CNC(=O)c2cc(O)cc(NC3=NCC(O)CN3)c2)c1O (stereo partly drawn) [Example C10, reference compound]
